Reference: patent publication US4963565A, “In vivo treatment of mycobacterial infections with 6-cyclo octylamino-5,8-quinoline quinone” (priority 1986, dated 1990)

What was measured:
[1] = tested on: M. intracellulare (571-8 strain); assay: In vivo activity of different doses against acute M. intracellulare infections in Beige mice (Example III); design: species or system M. intracellulare (host: Beige mice)
[2] = tested on: M. intracellulare 571-8; assay: In vivo effectiveness against chronic M. intracellulare infections in C57Bl/6 mice (Examples IV and V); design: species or system M. intracellulare (host: C57Bl/6 mice)
[3] = tested on: Mycobacterium leprae; assay: Inhibitory activity against Mycobacterium leprae in the macrophage model (3H thymidine uptake); type: cell-based, M. leprae (in human monocyte derived macrophages); design: Inhibition of 3H thymidine uptake: dose or concentration left out as unconfirmed
From the text: The effect of CQQ on Mycobacterium leprae, the causative agent for leprosy, was studied using monocyte derived macrophages obtained from human volunteers.
Blood from a healthy volunteer was drawn and monocytes were removed and cultured to the macrophage stage. This required about 7 days. The macrophages were then exposed to M. leprae bacilli obtained from biopsy specimens of leprosy patients. One sample was exposed to CQQ, while other samples were exposed to DDS (diaminodiphenyl sulphone), the standard antileprosy drug, or rifampin, at various concentrations. Macrophages were exposed to radiolabelled tritium (^3 H) labeled thymidine, and its uptake was measured using a liquid scintillation counter. A control model of M. leprae exposed macrophages, which was not treated was used as well. The uptake of thymidine is a measure of antimycobacterial activity.

[4] = Acute toxicity in C57Bl/6 mice; type: in vivo; details: mouse, in vivo, ip; C57Bl/6 mice, intraperitoneal
Procedure: (§1) Studies were performed to obtain toxicity data. […] Extrapolating, this corresponds to an LD50 of approximately 40 gr for a 70 kg subject. For chronic toxicity studies both C57Bl/6 and Beige mice were administered doses of 40 mg/kg/day, and intraperitoneal doses over 30 mg/kg for more than 60 days.

[5] = tested on: C57Bl/6 mice; assay: Acute toxicity in C57Bl/6 mice; type: in vivo; details: 70 kg subject, extrapolated from mouse LD50
Procedure: as §1

[6] = tested on: C57Bl/6 and Beige mice; assay: Chronic toxicity in C57Bl/6 and Beige mice; type: in vivo; details: 40 mg/kg/day, and intraperitoneal doses over 30 mg/kg, more than 60 days
Procedure: as §1

[7] = tested on: M. tuberculosis H37 Rv; assay: In vitro activity against growing culture of M. tuberculosis in Middlebrook 7H9 broth; details: 2 mcg/ml, FIG. 7

O=C1C(NC2CCCCCCC2)=CC(=O)c2ncccc21 [CQQ, 6-cyclo octylamino-5,8-quinoline quinone]
Dose comparison, 20 vs 10 mg/kg ([1]; 20 mg/kg vs 10 mg/kg): The dose of 20 mg/kg is better than 10 mg/kg dose | Inhibitory activity, reduction of CFU counts from spleens and lungs ([1]; 10 or 20 mg/kg, FIGS. 3 and 4): considerable inhibitory activity | Duration of statistically significant differences in CFU counts ([1]; 10 or 20 mg/kg, spleens and lungs (P 0.05)): up to 6 weeks | Effect in lung vs spleen ([1]; FIG. 4 vs FIG. 3): more pronounced in the lung (FIG. 4) than in the spleen | Duration of statistically significant difference vs control ([2]; Example IV, 10 mg/kg (P 0.05)): up to 3 weeks | Reduction in CFU counts in spleen and lungs vs untreated control ([2]; Example IV, 10 mg/kg, followed for 28 days, FIG. 5): considerable reduction in CFU counts both in spleen and lungs | In vivo antimycobacterial activity in the chronic infection ([2]; Example V, FIG. 6): considerable in vivo antimycobacterial activity | Counts per minute (3H thymidine uptake) ([3]; Sample I, 5 NG/ML): 2.4 COUNTS PER MINUTE | Counts per minute (3H thymidine uptake) ([3]; Sample I, 25 NG/ML): 93 COUNTS PER MINUTE | Counts per minute (3H thymidine uptake) ([3]; Sample I, 50 NG/ML): 93 COUNTS PER MINUTE | Counts per minute (3H thymidine uptake) ([3]; Sample I, 100 NG/ML): 84 COUNTS PER MINUTE | Counts per minute (3H thymidine uptake) ([3]; Sample I, CQQ 10 NG/ML): 2.3 COUNTS PER MINUTE | Counts per minute (3H thymidine uptake) ([3]; Sample II, 5 NG/ML): 6 COUNTS PER MINUTE | Counts per minute (3H thymidine uptake) ([3]; Sample II, 25 NG/ML): 69 COUNTS PER MINUTE | Counts per minute (3H thymidine uptake) ([3]; Sample II, 50 NG/ML): 76 COUNTS PER MINUTE | Counts per minute (3H thymidine uptake) ([3]; Sample II, 100 NG/ML): 76 COUNTS PER MINUTE | Counts per minute (3H thymidine uptake) ([3]; Sample II, 200 NG/ML): 91 COUNTS PER MINUTE | Counts per minute (3H thymidine uptake) ([3]; Sample II, CQQ 10 NG/ML): 13 COUNTS PER MINUTE | Counts per minute (3H thymidine uptake) ([3]; Sample III, 5 NG/ML): 2 COUNTS PER MINUTE | Counts per minute (3H thymidine uptake) ([3]; Sample III, 25 NG/ML): 37 COUNTS PER MINUTE | Counts per minute (3H thymidine uptake) ([3]; Sample III, CQQ 10 NG/ML): 2 COUNTS PER MINUTE | Activity with another strain of M. leprae ([3]; another strain): even greater activity | Antileprosy activity ([3]; conclusion from Table 3): considerable antileprosy activity | Inhibition of 3H thymidine uptake ([3]; two strains of M. leprae): significant inhibition | LD50 [4]: 564 mg/kg | LD50 extrapolated to a 70 kg subject [5]: approximately 40 gr | Visible toxic manifestation or death [6]: No visible toxic manifestation or death | Inhibitory activity against tubercle bacilli [7]: remarkable inhibitory activity
